Measured values as given in patent publication US20180127360A1 (Elé Corporation, priority 2016, published 2018).

Test: Surface tension, du Nouy ring interfacial tensiometer
Format: physicochemical
Conditions: 25° C.
Method: Surface tension measurements were taken on solutions made from the mixture prepared in Example 1(C) using a du Nouy ring interfacial tensiometer, equipped with a six-cm circumference platinum-iridium ring. A series of test solutions at different concentrations were prepared and their surface tension measured at 25° C. For each test concentration, the ring is slowly drawn out of the liquid. The surface tension is equal to the force required to draw the ring completely out of the liquid, divided by twice the circumference of the ring. […] The surface tension at the CMC was 29.6 dyne/cm.

CCCCCCCCCCCCNCCC(=O)O.N=C(N)NCCCC(N)C(=O)O [Example 1(C)]
surface tension at the CMC: 29.6 dyne/cm
Critical Micelle Concentration (CMC) (series of test solutions at different concentrations): 2.46 millimoles per liter
